System: H358 cells
Assay: Cell activity experiment: activity test of H358 cells (MTT, 5 days)
Assay type: cell-based
Conditions: Homo sapiens, NCI-H358, 120 h, 5 days incubation, absorbance 492 nm
Outline: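 Viability was read by MTT: 4 h dye incubation, DMSO solubilisation, absorbance at 492 nm. This followed 5 days' treatment (37° C., 5% CO2) of H358 cells, pre-grown 24 h, with eight-point 3-fold dilutions up to 10000 nM final, 0.5% DMSO final, triplicate wells.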

Compound	IC50 [µM]
C=CC(=O)N1CCN(c2nc(Oc3cccc4c3CCN(C)C4)nc3cc(-c4cccc5c4CCCC5)ccc23)C[C@@H]1CC#N [Example 109]	0.287
C=CC(=O)N1CCN(c2nc(OC[C@@H]3CCCN3C)nc3cc(-c4cccc5c4CCCC5)ccc23)C[C@@H]1CC#N [Example 110, 2-((S)-1-acryloyl-4-(2-(((S)-1-methylpyrrolidin-2-yl)methoxy)-7-(5,6,7,8-tetrahydronaphthalen-1-yl)quinazolin-4-yl)piperazin-2-yl)acetonitrile]	0.035
C=C(F)C(=O)N1CCN(c2nc(OC[C@@H]3CCCN3C)nc3cc(-c4cccc5c4CCCC5)ccc23)C[C@@H]1CC#N [Example 111]	0.14
C=CC(=O)N1CCN(c2nc(OC[C@@H]3C[C@@H](F)CN3C)nc3cc(-c4cccc5c4CCCC5)ccc23)C[C@@H]1CC#N [Example 112]	0.038
C=C(F)C(=O)N1CCN(c2nc(OC[C@@H]3C[C@@H](F)CN3C)nc3cc(-c4cccc5c4CCCC5)ccc23)C[C@@H]1CC#N [Example 113]	0.15
C=CC(=O)N1CCN(c2nc(OCC34CCCN3CCC4)nc3cc(-c4cccc5c4CCCC5)ccc23)C[C@@H]1CC#N [Example 114, (S)-2-(1-acryloyl-4-(2-((tetrahydro-1H-pyrrolizin-7a(5H)-yl)methoxy)-7-(5,6,7,8-tetrahydronaphthalen-1-yl)quinazolin-4-yl)piperazin-2-yl)acetonitrile]	0.02
C=C(F)C(=O)N1CCN(c2nc(OCC34CCCN3CCC4)nc3cc(-c4cccc5c4CCCC5)ccc23)C[C@@H]1CC#N [Example 115]	0.045
C=CC(=O)N1CCN(c2nc(OCC34CCCN3C[C@H](F)C4)nc3cc(-c4cccc5c4CCCC5)ccc23)C[C@@H]1CC#N (stereo partly drawn) [Example 116]	0.015
C=C(F)C(=O)N1CCN(c2nc(OCC34CCCN3C[C@H](F)C4)nc3cc(-c4cccc5c4CCCC5)ccc23)C[C@@H]1CC#N (stereo partly drawn) [Example 117]	0.03
C=CC(=O)N1CCN(c2nc(OC[C@@H]3CCCN3C)nc3cc(-c4cncc5cccc(Cl)c45)ccc23)C[C@@H]1CC#N [Example 126, 2-((S)-1-acryloyl-4-(7-(5-chloroisoquinolin-4-yl)-2-((((S)-1-methylpyrrolidin-2-yl)methoxy)quinazolin-4-yl])piperazin-2-yl)acetonitrile]	0.018
C=C(F)C(=O)N1CCN(c2nc(OC[C@@H]3CCCN3C)nc3cc(-c4cncc5cccc(Cl)c45)ccc23)C[C@@H]1CC#N [Example 127]	0.072
C=CC(=O)N1CCN(c2nc(OC[C@@H]3C[C@@H](F)CN3C)nc3cc(-c4cncc5cccc(Cl)c45)ccc23)C[C@@H]1CC#N [Example 128, 2-((S)-1-acryloyl-4-(7-(5-chloroisoquinolin-4-yl)-2-((((2S,4R)-4-fluoro-1-methylpyrrolidin-2-yl)methoxy))quinazolin-4-yl)piperazin-2-yl)acetonitrile]	0.02
C=C(F)C(=O)N1CCN(c2nc(OC[C@@H]3C[C@@H](F)CN3C)nc3cc(-c4cncc5cccc(Cl)c45)ccc23)C[C@@H]1CC#N [Example 129]	0.05
C=C(F)C(=O)N1CCN(c2nc(OCC34CCCN3CCC4)nc3cc(-c4cncc5cccc(Cl)c45)ccc23)C[C@@H]1CC#N [Example 131, (S)-2-(4-(7-(5-chloroisoquinolin-4-yl)-2-((tetrahydro-1H-pyrrolizin-7a(5H)-yl)methoxy)quinazolin-4-yl)-1-(2-fluoroacryloyl)piperazin-2-yl)acetonitrile]	0.016
C=CC(=O)N1CCN(c2nc(OC[C@@H]3CCCN3C)nc3cc(-c4cncc5c4CCCC5)ccc23)C[C@@H]1CC#N [Example 142]	0.02
C=C(F)C(=O)N1CCN(c2nc(OC[C@@H]3CCCN3C)nc3cc(-c4cncc5c4CCCC5)ccc23)C[C@@H]1CC#N [Example 143]	0.08
C=CC(=O)N1CCN(c2nc(OC[C@@H]3C[C@@H](F)CN3C)nc3cc(-c4cncc5c4CCCC5)ccc23)C[C@@H]1CC#N [Example 144]	0.025
C=C(F)C(=O)N1CCN(c2nc(OC[C@@H]3C[C@@H](F)CN3C)nc3cc(-c4cncc5c4CCCC5)ccc23)C[C@@H]1CC#N [Example 145]	0.102
C=C(F)C(=O)N1CCN(c2nc(OCC34CCCN3CCC4)nc3cc(-c4cncc5c4CCCC5)ccc23)C[C@@H]1CC#N [Example 147]	0.018

Now those with a lower IC50, led by results:

IC50 [µM]	Compound
0.01	C=CC(=O)N1CCN(c2nc(OCC34CCCN3CCC4)nc3cc(-c4cncc5c4CCCC5)ccc23)C[C@@H]1CC#N [Example 146, (S)-2-(1-acryloyl-4-(2-((tetrahydro-1H-pyrrolizin-7a(5H)-yl)methoxy)-7-(5,6,7,8-tetrahydroisoquinolin-4-yl)quinazolin-4-yl)piperazin-2-yl)acetonitrile]
0.01	C=C(F)C(=O)N1CCN(c2nc(OCC34CCCN3C[C@H](F)C4)nc3cc(-c4cncc5c4CCCC5)ccc23)C[C@@H]1CC#N (stereo partly drawn) [Example 149]
0.008	C=C(F)C(=O)N1CCN(c2nc(OCC34CCCN3CCC4)nc3cc(-c4cccc5ccc(F)c(Cl)c45)ccc23)C[C@@H]1CC#N [Example 98, (S)-2-(4-(7-(8-chloro-7-fluoronaphthalen-1-yl)-2-((tetrahydro-1H-pyrrolizin-7a(5H)-yl)methoxy)quinazolin-4-yl)-1-(2-fluoroacryloyl)piperazin-2-yl)acetonitrile]
0.008	C=CC(=O)N1CCN(c2nc(OCC34CCCN3CCC4)nc3cc(-c4cncc5cccc(Cl)c45)ccc23)C[C@@H]1CC#N [Example 130, (S)-2-(1-acryloyl-4-(7-(5-chloroisoquinolin-4-yl)-2-((tetrahydro-1H-pyrrolizin-7a(5H)-yl)methoxy)quinazolin-4-yl)piperazin-2-yl)acetonitrile]
0.008	C=C(F)C(=O)N1CCN(c2nc(OCC34CCCN3C[C@H](F)C4)nc3cc(-c4cncc5cccc(Cl)c45)ccc23)C[C@@H]1CC#N (stereo partly drawn) [Example 133]
0.006	C=C(F)C(=O)N1CCN(c2nc(OCC34CCCN3C[C@H](F)C4)nc3cc(-c4cccc5ccc(F)c(Cl)c45)ccc23)C[C@@H]1CC#N (stereo partly drawn) [Example 100]
0.005	C=CC(=O)N1CC[C@@H]2[C@H]1CN2c1nc(OC[C@@H]2CCCN2C)nc2cc(-c3cccc4ccc(F)c(Cl)c34)ccc12 [Example 101, 1-((1R,5R)-6-(7-(8-chloro-7-fluoronaphthalen-1-yl)-2-(((S)-1-methylpyrrolidin-2-yl)methoxy)quinazolin-4-yl)-2,6-diazabicyclo[3.2.0]hept-2-yl)prop-2-en-1-one]
0.005	C=CC(=O)N1CCN(c2nc(OCC34CCCN3C[C@H](F)C4)nc3cc(-c4cncc5c4CCCC5)ccc23)C[C@@H]1CC#N (stereo partly drawn) [Example 148]
0.004	C=CC(=O)N1CCN(c2nc(OC[C@@H]3CCCN3C)nc3c(F)c(-c4cncc5cccc(Cl)c45)ccc23)C[C@@H]1CC#N [Example 158, 2-((S)-1-acryloyl-4-(7-(5-chloroisoquinolin-4-yl)-8-fluoro-2-(((S)-1-methylpyrrolidin-2-yl)methoxy)quinazolin-4-yl)piperazin-2-yl)acetonitrile]
0.003	C=CC(=O)N1CCN(c2nc(OCC34CCCN3C[C@H](F)C4)nc3cc(-c4cncc5cccc(Cl)c45)ccc23)C[C@@H]1CC#N (stereo partly drawn) [Example 132]
0.00034	C=CC(=O)N1CCN(c2nc(OCC34CCCN3C[C@H](F)C4)nc3cc(-c4cccc5ccc(F)c(Cl)c45)ccc23)C[C@@H]1CC#N (stereo partly drawn) [Example 99]

— patent US20240109893A1, “PREPARATION AND APPLICATION METHOD OF HETEROCYCLIC COMPOUNDS AS KRAS INHIBITOR” (SHANGHAI KECHOW PHARMA, INC., priority 2020, published 2024)
